Measured values from patent US20230312542A1, “HYDROXYPYRROLIDINE DERIVATIVE AND MEDICINAL APPLICATION THEREOF” (MITSUBISHI TANABE PHARMA CORPORATION, priority 2020, published 2023).
Like-named read-outs stand apart in the source and are kept apart here.

Target: VHL (co-expressed with Elongin B and Elongin C) (Homo sapiens (Human), UniProt P40337)
Assay: Measurement of intermolecular interactions using surface plasmon resonance (Biacore T200), Kd value for VHL
Format: binding
Source text: As the device, Biacore T200 (manufactured by GE Healthcare) was used. VHL was obtained by co-expressing Elongin B and Elongin C with a Twin-Strep-tag added to the N-terminus. As the sensor chip, Sensor chip CM5 (manufactured by GE Healthcare) was used. First, Strep-Tactin XT (manufactured by GE Healthcare) was immobilized on the sensor chip by amine coupling. Thereafter, VHL was immobilized using the affinity of Strep-Tactin XT and Twin-Strep-tag, and VHL was further immobilized on the sensor chip by amine coupling.
As the running buffer, a mixed solution of 20 mM HEPES pH 7.5, 150 mM NaCl, 1 mM TCEP, 0.005% Tween 20, and 2% DMSO was used. […] The Contact time and the Dissociation time were determined according to the properties of the compounds. For many compounds, 60 seconds and 120 seconds were respectively used.

[1] = SPR, immobilized VHL, 25° C., read-out: Kd

Sequence of VHL (co-expressed with Elongin B and Elongin C) (P40337 whole entry, looked up): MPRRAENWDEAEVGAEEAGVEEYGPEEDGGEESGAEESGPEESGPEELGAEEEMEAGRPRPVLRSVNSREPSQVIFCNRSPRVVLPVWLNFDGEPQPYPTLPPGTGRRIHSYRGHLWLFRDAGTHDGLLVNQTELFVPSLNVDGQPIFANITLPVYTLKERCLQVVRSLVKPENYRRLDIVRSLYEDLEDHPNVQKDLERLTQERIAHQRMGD
Sequence of VHL (co-expressed with Elongin B and Elongin C) (Q15370 whole entry partner, looked up): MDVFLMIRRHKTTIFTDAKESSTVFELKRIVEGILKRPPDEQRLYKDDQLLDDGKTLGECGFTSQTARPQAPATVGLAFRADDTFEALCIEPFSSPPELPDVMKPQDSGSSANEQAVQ
Sequence of VHL (co-expressed with Elongin B and Elongin C) (Q15369 whole entry partner, looked up): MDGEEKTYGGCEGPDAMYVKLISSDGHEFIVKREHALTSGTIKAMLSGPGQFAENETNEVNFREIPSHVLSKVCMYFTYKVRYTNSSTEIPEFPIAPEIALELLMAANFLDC

SMILES	Kd [1] [nM]	Kd [nM]
CC(=O)N[C@H](C(=O)N1C[C@H](O)C[C@H]1c1nc(C(=O)N(C)Cc2ccccc2F)c[nH]1)C(C)(C)C [Example 17, 2-[(2S,4R)-1-[(2S)-2-acetamido-3,3-dimethylbutanoyl]-4-hydroxypyrrolidin-2-yl]-N-[(2-fluorophenyl)methyl]-N-methyl-1H-imidazole-4-carboxamide]	1000 to 10000	–
COc1cc(C(C(=O)N2C[C@H](O)C[C@H]2c2nc(C(=O)N3CCC(OCc4ccccc4)CC3)c[nH]2)C(C)C)on1 (stereo partly drawn) [Example 141, 1-[(2S,4R)-2-[4-(4-benzyloxypiperidine-1-carbonyl)-1H-imidazol-2-yl]-4-hydroxypyrrolidin-1-yl]-2-(3-methoxyisoxazol-5-yl)-3-methylbutan-1-one]	1000 to 10000	–
COc1ccc(Cc2cnc([C@@H]3C[C@@H](O)CN3C(=O)C(c3cc(OC)no3)C(C)C)[nH]2)cc1 (stereo partly drawn) [Example 62, 1-[(2S,4R)-4-hydroxy-2-[5-[(4-methoxyphenyl)methyl]-1H-imidazol-2-yl]pyrrolidin-1-yl]-2-(3-methoxy-1,2-oxazol-5-yl)-3-methylbutan-1-one]	1000 to 10000	–
CC(=O)N[C@H](C(=O)N1C[C@H](O)C[C@H]1c1ncc(Cc2ccc(Br)cc2)[nH]1)C(C)(C)C [Example 81, N-[(2S)-1-[(2S,4R)-2-[5-[(4-bromophenyl)methyl]-1H-imidazol-2-yl]-4-hydroxypyrrolidin-1-yl]-3,3-dimethyl-1-oxobutan-2-yl]acetamide]	1000 to 10000	–
CC(=O)N[C@H](C(=O)N1C[C@H](O)C[C@H]1c1ncc(-c2ccccc2C(F)(F)F)[nH]1)C(C)(C)C [Example 84, N-[(2S)-1-[(2S,4R)-4-hydroxy-2-[5-[2-(trifluoromethyl)phenyl]-1H-imidazol-2-yl]pyrrolidin-1-yl]-3,3-dimethyl-1-oxobutan-2-yl]acetamide]	1000 to 10000	–
CNC(=O)c1nc([C@@H]2C[C@@H](O)CN2C(=O)C(c2cc(OC)no2)C(C)C)[nH]c1-c1ccc(OC)cc1 (stereo partly drawn) [Example 75, 2-[(2S,4R)-4-hydroxy-1-[2-(3-methoxy-1,2-oxazol-5-yl)-3-methylbutanoyl]pyrrolidin-2-yl]-5-(4-methoxyphenyl)-N-methyl-1H-imidazole-4-carboxamide]	1000 to 10000	–
CNC(=O)c1ccccc1-c1cnc([C@@H]2C[C@@H](O)CN2C(=O)C(c2cc(OC)no2)C(C)C)[nH]1 (stereo partly drawn) [Example 64, 2-[2-[(2S,4R)-4-hydroxy-1-[2-(3-methoxy-1,2-oxazol-5-yl)-3-methylbutanoyl]pyrrolidin-2-yl]-1H-imidazol-5-yl]-N-methylbenzamide]	1000 to 10000	–
CC(=O)N[C@H](C(=O)N1C[C@H](O)C[C@H]1c1nc(C(=O)N(C)Cc2ccccc2Cl)c[nH]1)C(C)(C)C [Example 14, 2-[(2S,4R)-1-[(2S)-2-acetamido-3,3-dimethylbutanoyl]-4-hydroxypyrrolidin-2-yl]-N-[(2-chlorophenyl)methyl]-N-methyl-1H-imidazole-4-carboxamide]	1000 to 10000	–
COc1cc(C(C(=O)N2C[C@H](O)C[C@H]2c2nc(C(=O)N3CC(c4ccccc4)C3)c[nH]2)C(C)C)on1 (stereo partly drawn) [Example 108, 1-[(2S,4R)-4-hydroxy-2-[4-(3-phenylazetidine-1-carbonyl)-1H-imidazol-2-yl]pyrrolidin-1-yl]-2-(3-methoxyisoxazol-5-yl)-3-methylbutan-1-one]	< 1000	–
CC(=O)N[C@H](C(=O)N1C[C@H](O)C[C@H]1c1nc(C(=O)N(C)Cc2ccccc2)c[nH]1)C(C)(C)C [Example 51, 2-[(2S,4R)-1-[(2S)-2-acetamido-3,3-dimethylbutanoyl]-4-hydroxypyrrolidin-2-yl]-N-benzyl-N-methyl-1H-imidazole-4-carboxamide]	1000 to 10000	–
CC(=O)N[C@H](C(=O)N1C[C@H](O)C[C@H]1c1ncc(Cc2cccc(-c3scnc3C)c2)[nH]1)C(C)(C)C [Example 91, N-[(2S)-1-[(2S,4R)-4-hydroxy-2-[5-[[3-(4-methyl-1,3-thiazol-5-yl)phenyl]methyl]-1H-imidazol-2-yl]pyrrolidin-1-yl]-3,3-dimethyl-1-oxobutan-2-yl]acetamide]	1000 to 10000	–
CC(=O)N[C@H](C(=O)N1C[C@H](O)C[C@H]1c1nc(C(=O)N(C)Cc2ccc(C(F)(F)F)cc2)c[nH]1)C(C)(C)C [Example 22, 2-[(2S,4R)-1-[(2S)-2-acetamido-3,3-dimethylbutanoyl]-4-hydroxypyrrolidin-2-yl]-N-methyl-N-[[4-(trifluoromethyl)phenyl]methyl]-1H-imidazole-4-carboxamide]	1000 to 10000	–
COc1ccc(CN(C)C(=O)c2c[nH]c([C@@H]3C[C@@H](O)CN3C(=O)[C@@H](NC(C)=O)C(C)(C)C)n2)cc1 [Example 25, 2-[(2S,4R)-1-[(2S)-2-acetamido-3,3-dimethylbutanoyl]-4-hydroxypyrrolidin-2-yl]-N-[(4-methoxyphenyl)methyl]-N-methyl-1H-imidazole-4-carboxamide]	1000 to 10000	–
COc1cc(C(C(=O)N2C[C@H](O)C[C@H]2c2nc(C(=O)N3CCC(Nc4ccccc4)CC3)c[nH]2)C(C)C)on1 (stereo partly drawn) [Example 150, 1-[(2S,4R)-2-[4-(4-anilinopiperidine-1-carbonyl)-1H-imidazol-2-yl]-4-hydroxypyrrolidin-1-yl]-2-(3-methoxyisoxazol-5-yl)-3-methylbutan-1-one]	–	1000 to 10000
COc1cccc(CN(C)C(=O)c2c[nH]c([C@@H]3C[C@@H](O)CN3C(=O)[C@@H](NC(C)=O)C(C)(C)C)n2)c1 [Example 24, 2-[(2S,4R)-1-[(2S)-2-acetamido-3,3-dimethylbutanoyl]-4-hydroxypyrrolidin-2-yl]-N-[(3-methoxyphenyl)methyl]-N-methyl-1H-imidazole-4-carboxamide]	1000 to 10000	–
CC(=O)N[C@H](C(=O)N1C[C@H](O)C[C@H]1c1nc(C(=O)N(C)Cc2ccc3ccccc3c2)c[nH]1)C(C)(C)C [Example 30, 2-[(2S,4R)-1-[(2S)-2-acetamido-3,3-dimethylbutanoyl]-4-hydroxypyrrolidin-2-yl]-N-methyl-N-(naphthalen-2-ylmethyl)-1H-imidazole-4-carboxamide]	1000 to 10000	–
COc1cccc(-c2cnc([C@@H]3C[C@@H](O)CN3C(=O)C(c3cc(OC)no3)C(C)C)[nH]2)c1 (stereo partly drawn) [Example 61, 1-[(2S,4R)-4-hydroxy-2-[5-(3-methoxyphenyl)-1H-imidazol-2-yl]pyrrolidin-1-yl]-2-(3-methoxy-1,2-oxazol-5-yl)-3-methylbutan-1-one]	1000 to 10000	–
CNC(=O)c1cccc(-c2cnc([C@@H]3C[C@@H](O)CN3C(=O)C(c3cc(OC)no3)C(C)C)[nH]2)c1 (stereo partly drawn) [Example 80, 3-[2-[(2S,4R)-4-hydroxy-1-[2-(3-methoxy-1,2-oxazol-5-yl)-3-methylbutanoyl]pyrrolidin-2-yl]-1H-imidazol-5-yl]-N-methylbenzamide]	1000 to 10000	–
CC(=O)N[C@H](C(=O)N1C[C@H](O)C[C@H]1c1nc(C(=O)N(C)Cc2ccc(Cl)cc2)c[nH]1)C(C)(C)C [Example 16, 2-[(2S,4R)-1-[(2S)-2-acetamido-3,3-dimethylbutanoyl]-4-hydroxypyrrolidin-2-yl)-N-[(4-chlorophenyl)methyl]-N-methyl-1H-imidazole-4-carboxamide]	1000 to 10000	–
COc1cc(C(C(=O)N2C[C@H](O)C[C@H]2c2nc(C(=O)N(C)CCNc3ccccc3)c[nH]2)C(C)C)on1 (stereo partly drawn) [Example 158, N-(2-anilinoethyl)-2-[(2S,4R)-4-hydroxy-1-[2-(3-methoxyisoxazol-5-yl)-3-methylbutanoyl]pyrrolidin-2-yl]-N-methyl-1H-imidazole-4-carboxamide]	< 1000	–
